Results published in PubChem BioAssay (NCI).
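Compound exposure: 48 hours, 5 concentrations, 96-well plates. Definition used: TGI = concentration required for complete inhibition of growth.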

How the values were obtained:
Assay in all cases: growth of human tumour cells (NCI), 48 h
786-0 renal = tested on: 786-0 renal
DU-145 prostate = tested on: DU-145 prostate
MCF7 breast = tested on: MCF7 breast
MDA-MB-231 breast = tested on: MDA-MB-231 breast
MDA-MB-435 = tested on: MDA-MB-435
OVCAR-3 ovarian = tested on: OVCAR-3 ovarian
SF-295 CNS = tested on: SF-295 CNS
SK-MEL-5 melanoma = tested on: SK-MEL-5 melanoma
SK-OV-3 ovarian = tested on: SK-OV-3 ovarian
MALME-3M melanoma = tested on: MALME-3M melanoma
SNB-19 CNS = tested on: SNB-19 CNS

Row | SMILES | TGI (786-0 renal) [µM] | TGI (DU-145 prostate) [µM] | TGI (MCF7 breast) [µM] | TGI (MDA-MB-231 breast) [µM] | TGI (MDA-MB-435) [µM] | TGI (OVCAR-3 ovarian) [µM] | TGI (SF-295 CNS) [µM] | TGI (SK-MEL-5 melanoma) [µM] | TGI (SK-OV-3 ovarian) [µM] | TGI (MALME-3M melanoma) [µM] | TGI (SNB-19 CNS) [µM]
1 | Fc1cc(C2=Nn3c(COc4ccccc4Cl)nnc3S/C2=C\c2ccc(Cl)cc2)c(Cl)cc1Cl | 26.5 | 81.7 | 83.4 | > 100 | 6.3 | 62 | > 100 | 19 | > 100 |  | 
2 | COC(=O)c1cc2c(c(C(=O)OC)c1)CCC2 | > 100 | > 100 | > 100 | > 100 | > 100 | > 100 | > 100 | > 100 | > 100 | > 100 | > 100
3 | Cc1cc(N(CCC#N)CCC#N)ccc1/C(N=Nc1ccc([N+](=O)[O-])cc1)=N\NC(=O)c1cc(Cl)ccc1O | > 100 | > 100 | > 100 | > 100 | > 100 | 38.2 | > 100 | > 100 | > 100 | > 100 | > 100
4 | Cc1ccc(S(=O)(=O)n2cc(C=O)c(-c3cn(S(=O)(=O)c4ccc(C)cc4)cc3-c3cn(S(=O)(=O)c4ccc(C)cc4)cc3C=O)c2)cc1 | > 100 | > 100 | 87.2 | > 100 | > 100 | > 100 | > 100 | > 100 | > 100 | > 100 | > 100
5 | C=C1C(C(=O)OC)[C@H]1C(=O)OC (some centres not stated) | > 100 | > 100 | > 100 | > 100 | > 100 | > 100 | > 100 | > 100 | > 100 |  | > 100
6 | COC(=O)c1ccc(NCc2cc(OC)ccc2OC)cc1 | > 100 | > 100 | > 100 | > 100 | > 100 | > 100 |  | > 100 | > 100 | > 100 | > 100
7 | CC(=O)Nc1nc(C)c(S(=O)(=O)NC(=O)NC2NC(=O)NC2=O)s1 (configuration not stated) | > 100 | > 100 | > 100 | > 100 | > 100 | > 100 | > 100 | > 100 | > 100 | > 100 | > 100
8 | COc1ccc(S(=O)(=O)Nc2ccc(-c3csc(N4C(=O)/C(=C/c5ccccc5[N+](=O)[O-])N=C4c4ccccc4)n3)cc2)cc1Cl | > 100 | > 100 | > 100 | 78.5 | > 100 | > 100 | > 100 | > 100 | > 100 | > 100 | > 100
9 | NC(=S)N1N=C2CCCCCC[C@@H]2[C@H]1c1ccccc1 | > 100 |  |  |  |  | > 100 | > 100 | > 100 | > 100 | > 100 | > 100
10 | COc1ccc(C(=O)/C=C/c2ccc(OCCCCCCCCCCOc3ccc(/C=C/C(=O)c4ccc(OC)cc4)cc3)cc2)cc1 | > 100 | > 100 | > 100 | > 100 | > 100 |  | > 100 | > 100 | > 100 |  | > 100
11 | C(=N\c1nc2cc3sc(/N=C/c4ccccc4)nc3cc2s1)/c1ccccc1 | > 100 | > 100 | > 100 | > 100 | > 100 | > 100 | > 100 | > 100 | > 100 | > 100 | > 100
12 | O=P1(c2ccccc2)C(c2ccccc2)CCC1c1ccccc1 (configuration not stated) | > 100 | > 100 | > 100 | > 100 | > 100 | > 100 | > 100 | > 100 | > 100 |  | > 100
13 | CC(C)(C)C1=CC(=N/N=c2\scc(-c3ccccc3)n2-c2ccccc2)C=C(C(C)(C)C)C1=O | > 100 |  |  |  |  | > 100 | > 100 | > 100 | > 100 | > 100 | > 100
14 | CCOP(=O)(CC(=O)C1CC1)OCC | > 100 | > 100 | > 100 | > 100 |  |  | > 100 | > 100 | > 100 | > 100 | > 100
15 | COC(=O)CCc1ccc(CCC(=O)OC)cc1 | > 100 | > 100 | > 100 | > 100 | > 100 | > 100 | > 100 | > 100 | > 100 | > 100 | > 100
16 | CC1CCN(C(C)C)P(=S)(Cc2ccccc2)O1 (configuration not stated) | > 100 | > 100 | > 100 | > 100 | > 100 | > 100 | > 100 | > 100 | > 100 | > 100 | > 100
17 | O=C(Cc1ccc2ccccc2c1)NCc1ccc(C(=O)NCCc2ccccc2)cc1 | > 100 | > 100 | > 100 | > 100 | > 100 | > 100 | > 100 | > 100 | > 100 | > 100 | > 100
18 | CN(O)C(=O)CCC(NC(=O)CCC(N)C(=O)O)C(=O)NCC(=O)O (configuration not stated) | > 100 | > 100 | > 100 | > 100 | > 100 | > 100 | > 100 | > 100 | > 100 |  | > 100
19 | COc1ccc2[nH]cc(CCNC(=O)[C@H](Cc3ccc(O)cc3)NC(=O)[C@@H](NCC(F)(F)F)C(C)C)c2c1 | > 100 | > 100 | > 100 | > 100 | 83.3 | 57.4 | > 100 |  | > 100 | > 100 | > 100
20 | CCOC(=O)C1(C(=O)OCC)C(C(C)(C)C)=C(C)c2ccccc21 | 29.7 |  |  |  |  | 24.9 | 30.2 | 21.8 | 69.5 | 28.9 | 45
21 | C=C1C2CCC3C4(C)CCCC(C)(C(=O)O)C4CCC3(C2)C1OC(=O)/C(C)=C/C (configuration not stated) | > 100 | > 100 | 70.8 | 46.9 | > 100 | 41 | 44.2 | 75.6 | 70.2 | > 100 | 
